Structures can show the parent of a compound that is named as a salt.
Columns and labels:
oestrogen receptor (ER) = target: T1, oestrogen receptor (ER) (Homo sapiens, UniProt P03372); assay: Anti-oestrogenic action in MVLN cells (inhibition of estradiol-induced luciferase); format: cell-based; conditions: inhibition of estradiol-induced luciferase signal, value of Ex. 44 is a mean value, read-out: Antioestrogenic action in vitro: MVLN transactivation antagonism IC50
T1 construct: These MVLN cells express, along with the functional oestrogen receptor (ER), a reporter construct; endogenous in cells; host or cells: MVLN cells (MCF7 derivative carrying a luciferase reporter construct)
T1 sequence (P03372 1-595): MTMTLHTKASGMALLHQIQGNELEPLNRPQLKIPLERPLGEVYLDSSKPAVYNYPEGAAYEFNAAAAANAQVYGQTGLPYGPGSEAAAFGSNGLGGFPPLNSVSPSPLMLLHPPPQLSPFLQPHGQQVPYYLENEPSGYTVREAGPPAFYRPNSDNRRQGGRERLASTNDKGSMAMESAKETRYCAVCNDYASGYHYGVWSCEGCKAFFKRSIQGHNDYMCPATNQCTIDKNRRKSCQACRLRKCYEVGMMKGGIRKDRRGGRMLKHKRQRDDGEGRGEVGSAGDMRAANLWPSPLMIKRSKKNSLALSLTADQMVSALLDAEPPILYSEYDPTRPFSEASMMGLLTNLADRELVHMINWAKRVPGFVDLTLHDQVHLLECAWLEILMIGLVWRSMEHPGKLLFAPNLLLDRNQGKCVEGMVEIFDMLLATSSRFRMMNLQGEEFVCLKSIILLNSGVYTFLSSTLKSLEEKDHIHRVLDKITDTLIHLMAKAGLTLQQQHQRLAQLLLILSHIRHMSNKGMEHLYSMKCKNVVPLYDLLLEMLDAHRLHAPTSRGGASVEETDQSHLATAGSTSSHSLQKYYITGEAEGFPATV
Summary of the method: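 MVLN cells, MCF7 breast cancer derivatives carrying functional ER plus an ER-activated luciferase reporter, were treated with compounds in the presence of estradiol. Anti-oestrogenic activity taken as inhibition of the estradiol-induced luciferase signal.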

uterus [1] = assay: Anti-uterus growth test in the adult rat; conditions: sc, 72 h; ovariectomized adult rat, s.c. 3 days with 1.5 μg/kg/day 17β-estradiol; inhibition of uterus growth; value of 44 is a mean of two measurements; read-out: anti-oestrogenic activity in vivo in % at a dose of 0.3 mg/kg (rat)
From the text: The uterus of oestrogen-substituted rats can be used as a test model for detecting a direct action of substances with anti-oestrogenic properties. The parameter of oestrogenic action is estradiol-induced uterus growth in rats, which is inhibited by simultaneous administration of a substance with anti-oestrogenic action. The experimental animals (n=5-6 animals/group) were ovariectomized before the start of the test, to rule out the influence of endogenous oestrogens. After a phase of 6 to 10 days, the test substances are administered s.c. on 3 consecutive days (d1-d3) in combination with a substitution dose of 1.5 μg/kg/day 17β-estradiol. 17β-estradiol alone serves as positive control, and the excipients serve as negative control. On day 4 (d4) the animals are killed, and the uteri and vaginae are removed and weighed. The organ weights are converted to mg/100 g body weight, then the mean value and the standard deviation are calculated for each dosage. The inhibition of uterus growth induced by 17β-estradiol is shown as percentage inhibition.

uterus [2] = assay: Oestrogenic action - uterus growth test in the infantile rat; format: in vivo; conditions: sc, 72 h, s.c. 3 days, relative to E2 0.3 μg/animal, read-out: maximum uterotropic action (% estradiol action) in the dose range from 0.03 to 3 mg/kg; for Emax at 0.3 mg/kg: maximum at dose 0.3 mg/kg
Protocol: Both the uterus and the vagina show a weight increase that is dependent on oestrogenic efficacy, in infantile animals when they are treated with a substance with oestrogenic action. In the uterus, under oestrogenic action there is also proliferation and increase in height of the luminal epithelium.
Immature, intact rats (n=5-6 animals/group; body weight 40-50 g) receive the substance s.c. for 3 days (d1-d3). On day 4 (d4) the animals are killed with CO2. The uteri are removed and weighed. For histological assessment, a piece of uterus, preferably a uterine horn, is fixed in formaldehyde and embedded in paraffin. The stimulation of the organ weights (relative to mg/100 g body weight) and the height of the epithelium are shown as percentage stimulation in comparison with the reference compound 17β-estradiol (E2). (Substitution dose of E2 0.3 μg/animal).

[3] = test system: ovarian estradiol synthesis; assay: Stimulation of ovarian oestrogen synthesis (HPG axis) in intact adult rats; format: in vivo, rat; conditions: hormonally intact adult rats, daily for 10 days; quotient of peripheral estradiol values after and before treatment
From the text: The clinical use both of pure anti-oestrogens and of various SERMs for the treatment of premenopausal women is limited by their property of stimulating the ovaries through activation of the hypothalamic-pituitary-gonadal axis (HPG axis), which leads to the increase in peripheral estradiol levels (Palomba, S., Orio, F., Jr., Morelli, M., Russo, T., Pellicano, M., Zupi, E., Lombardi, G., Nappi, C., Panici, P. L., and Zullo, F. (2002). Raloxifene administration in premenopausal women with uterine leiomyomas: a pilot study. J Clin Endocrinol Metab 87, 3603-3608). This stimulation of the HPG axis is associated with penetration of the blood-brain barrier and penetration of the brain. To investigate the ovary-stimulating properties of the claimed pharmacological compounds, hormonally intact adult rats were treated with the substances daily for a period of 10 days. The study end point is the quotient of peripheral estradiol values after and before treatment.

Row | SMILES | IC50 (oestrogen receptor (ER)) | Stimulation of ovarian oestrogen synthesis: factor at a dose of 3 mg/kg rat [3] | inhibition in vivo at 0.3 mg/kg (uterus [1]) | Emax at 0.1 mg/kg (uterus [2]; maximum at dose 0.1 mg/kg) | Emax at 0.3 mg/kg (uterus [2])
1 | CN(CCCCCCC1=C(c2ccc(F)c(F)c2)CCCc2cc(O)ccc21)CCCS(=O)(=O)CCCC(F)(F)F [Example 23, 8-(3,4-Difluorophenyl)-9-[6-(methyl{3-[(4,4,4-trifluorobutyl)sulphonyl]propyl}amino)hexyl]-6,7-dihydro-5H-benzo[7]annulen-3-ol] | 22 nM |  | 33% |  | 
2 | CC(C)(O)CN(CCCCCCC1=C(c2ccc(F)c(F)c2)CCCc2cc(O)ccc21)CCCS(=O)(=O)CCC(F)(F)F [Example 27, 8-(3,4-Difluorophenyl)-9-{6-[(2-hydroxy-2-methylpropyl){3-[(3,3,3-trifluoropropyl)sulphonyl]propyl}amino]hexyl}-6,7-dihydro-5H-benzo[7]annulen-3-ol] | 35 nM |  | 10% |  | 
3 | CN(CCCCCCC1=C(c2ccc(F)c(F)c2)CCCc2cc(O)ccc21)CCCCS(=O)(=O)CCCC(F)(F)F [Example 45, 8-(3,4-Difluorophenyl)-9-[6-(methyl{4-[(4,4,4-trifluorobutyl)sulphonyl]butyl}amino)hexyl]-6,7-dihydro-5H-benzo[7]annulen-3-ol] | 20 nM |  | 73% |  | 
4 | CN(CCCCCCC1=C(c2cc(F)cc(F)c2)CCCc2cc(O)ccc21)CCCCS(=O)(=O)CCC(F)(F)F [Example 46, 8-(3,5-Difluorophenyl)-9-[6-(methyl{4-[(3,3,3-trifluoropropyl)sulphonyl]butyl}amino)hexyl]-6,7-dihydro-5H-benzo[7]annulen-3-ol] | 36 nM |  | 30% |  | 
5 | CN(CCCCCCC1=C(c2ccc(F)cc2)CCCc2cc(O)ccc21)CCCCS(=O)(=O)CCC(F)(F)F [Example 51, 8-(4-Fluorophenyl)-9-[6-(methyl{4-[(3,3,3-trifluoropropyl)sulphonyl]butyl}amino)hexyl]-6,7-dihydro-5H-benzo[7]annulen-3-ol] | 30 nM |  | 59% | 22% | 
6 | CN(CCCCCCC1=C(c2ccc(F)cc2)CCCc2cc(O)ccc21)CCCS(=O)(=O)CCCCC(F)(F)F [Example 80, 8-(4-Fluorophenyl)-9-[6-(methyl{3-[(5,5,5-trifluoropentyl)sulphonyl]propyl}amino)hexyl]-6,7-dihydro-5H-benzo[7]annulen-3-ol] | 8 nM | 2.3 | 59% |  | 
7 | CN(CCCCCCC1=C(c2ccc(F)cc2)CCCc2cc(O)ccc21)CCCS(=O)(=O)CCCC(F)(F)F [Example 117, 8-(4-fluorophenyl)-9-[6-(methyl{3-[(4,4,4-trifluorobutyl)sulphonyl]propyl}amino)hexyl]-6,7-dihydro-5H-benzo[7]annulen-3-ol] | 18 nM | 2.1 | 65% |  | 18%
8 | CN(CCCCCCC1=C(c2ccc(F)cc2)CCCc2cc(O)ccc21)CCCCS(=O)(=O)C1CCC(F)(F)CC1 [Example 122, 9-{6-[{4-[(4,4-difluorocyclohexyl)sulphonyl]butyl}(methyl)amino]hexyl}-8-(4-fluorophenyl)-6,7-dihydro-5H-benzo[7]annulen-3-ol] | 6 nM | 2.4 | 52% |  | 7%
9 | CN(CCCCCCC1=C(c2cccc(F)c2)CCCc2cc(O)ccc21)CCCCS(=O)(=O)CCCC(F)(F)C(F)(F)F [Example 124, 8-(3-fluorophenyl)-9-[6-(methyl{4-[(4,4,5,5,5-pentafluoropentyl)sulphonyl]butyl}amino)hexyl]-6,7-dihydro-5H-benzo[7]annulen-3-ol] | 13 nM | 2.0 | 67% |  | 
10 | O=C(c1ccc(OCCN2CCCCC2)cc1)c1c(-c2ccc(O)cc2)sc2cc(O)ccc12 [Raloxifene hydrochloride, Raloxifene, reference compound] |  | 3.1 |  |  | 

Second part, led by results:

Row | IC50 (oestrogen receptor (ER)) | Stimulation of ovarian oestrogen synthesis: factor at a dose of 3 mg/kg rat [3] | SMILES | inhibition in vivo at 0.3 mg/kg (uterus [1]) | Emax at 0.1 mg/kg (uterus [2]; maximum at dose 0.1 mg/kg) | Emax at 0.3 mg/kg (uterus [2])
11 | 24 nM |  | CN(CCCCCCC1=C(c2cc(F)cc(F)c2)CCCc2cc(O)ccc21)CCCS(=O)(=O)CCCC(F)(F)F [Example 7, 8-(3,5-Difluorophenyl)-9-[6-(methyl{3-[(4,4,4-trifluorobutyl)sulphonyl]propyl}amino)hexyl]-6,7-dihydro-5H-benzo[7]annulen-3-ol] | 23% |  | 
12 | 17 nM |  | CN(CCCCCCC1=C(c2ccc(F)cc2)CCCc2cc(O)ccc21)CCCCS(=O)(=O)CCCC(F)(F)F [Example 48, 8-(4-Fluorophenyl)-9-[6-(methyl{4-[(4,4,4-trifluorobutyl)sulphonyl]butyl}amino)hexyl]-6,7-dihydro-5H-benzo[7]annulen-3-ol] | 79% |  | 
13 | 10 nM | 1.4 | CN(CCCCCCC1=C(c2ccc(F)cc2)CCCc2cc(O)ccc21)CCCCS(=O)(=O)CCCC(F)(F)C(F)(F)F [Example 114, 8-(4-fluorophenyl)-9-[6-(methyl{4-[(4,4,5,5,5-pentafluoropentyl)sulphonyl]butyl}amino)hexyl]-6,7-dihydro-5H-benzo[7]annulen-3-ol] | 49% |  | 
14 | 34 nM |  | CN(CCCCCCC1=C(c2ccc(F)cc2)CCCc2cc(O)ccc21)CCCS(=O)(=O)CCC(F)(F)C(F)(F)F [Example 116, 8-(4-fluorophenyl)-9-[6-(methyl{3-[(3,3,4,4,4-pentafluorobutyl)sulphonyl]propyl}amino)hexyl]-6,7-dihydro-5H-benzo[7]annulen-3-ol] | 15% |  | 
15 | 13 nM | 2.5 | CN(CCCCCCC1=C(c2ccc(F)cc2)CCCc2cc(O)ccc21)CCCS(=O)(=O)CC1CCC(F)(F)CC1 [Example 123, 9-{6-[(3-{[(4,4-difluorocyclohexyl)methyl]sulphonyl}propyl)(methyl)amino]hexyl}-8-(4-fluorophenyl)-6,7-dihydro-5H-benzo[7]annulen-3-ol] | 56% |  | 8%
16 | 13 nM |  | CN(CCCCCCC1=C(c2cccc(F)c2)CCCc2cc(O)ccc21)CCCS(=O)(=O)CCCC(F)(F)C(F)(F)F [Example 125, 8-(3-fluorophenyl)-9-[6-(methyl{3-[(4,4,5,5,5-pentafluoropentyl)sulphonyl]propyl}amino)hexyl]-6,7-dihydro-5H-benzo[7]annulen-3-ol] | 75% |  | 
